This is an account of results in patent US20170334899A1, “AMINO-SUBSTITUTED ISOTHIAZOLES” (Bayer Pharma Aktiengesellschaft, priority 2014, published 2017).

The target in one assay is T1, CDK2/CycE (Homo sapiens, UniProt P24941).
T1 construct: GST; purchased ProQinase GmbH (Freiburg, Germany); host or cells: insect cells (Sf9)
Put plainly: CDK2/CycE kinase assay (TR-FRET). As to conditions: avg, read-out: CDK2 avg (IC50 [mol/l]). The assay is classed as biochemical. The text has this: CDK2/CycE -inhibitory activity of compounds of the present invention was quantified employing the CDK2/CycE TR-FRET assay as described in the following paragraphs.
Recombinant fusion proteins of GST and human CDK2 and of GST and human CycE, expressed in insect cells (Sf9) and purified by Glutathion-Sepharose affinity chromatography, were purchased from ProQinase GmbH (Freiburg, Germany). As substrate for the kinase reaction biotinylated peptide biotin-Ttds-YISPLKSPYKISEG (C-terminus in amid form) was used which can be purchased e.g. form the company JERINI peptide technologies (Berlin, Germany).
For the assay 50 nl of a 100fold concentrated solution of the test compound in DMSO was pipetted into a black low volume 384we11 microtiter plate (Greiner Bio-One, Frickenhausen, Germany), 2 μl of a solution of CDK2/CycE in aqueous assay buffer [50 mM Tris/HCl pH 8.0, 10 mM MgCl2, 1.0 mM dithiothreitol, 0.1 mM sodium ortho-vanadate, 0.01% (v/v) Nonidet-P40 (Sigma)] were added and the mixture was incubated for 15 min at 22° C. to allow pre-binding of the test compounds to the enzyme before the start of the kinase reaction. Then the kinase reaction was started by the addition of 3 μl of a solution of adenosine-tri-phosphate (ATP, 16.7 μM=>final conc. in the 5 μl assay volume is 10 μM) and substrate (1.25 μM=>final conc. in the 5 μl assay volume is 0.75 μM) in assay buffer and the resulting mixture was incubated for a reaction time of 25 min at 22° C. The concentration of CDK2/CycE was adjusted depending of the activity of the enzyme lot and was chosen appropriate to have the assay in the linear range, typical concentrations were in the range of 130 ng/ml. The reaction was stopped by the addition of 5 μl of a solution of TR-FRET detection reagents (0.2 μM streptavidine-XL665 [Cisbio Bioassays, Codolet, France] and 1 nM anti-RB(pSer807/pSer811)-antibody from BD Pharmingen [#558389] and 1.2 nM LANCE EU-W1024 labeled anti-mouse IgG antibody [Perkin-Elmer, product no. AD0077, as an alternative a Terbium-cryptate-labeled anti-mouse IgG antibody from Cisbio Bioassays can be used]) in an aqueous EDTA-solution (100 mM EDTA, 0.2% (w/v) bovine serum albumin in 100 mM HEPES/NaOH pH 7.0).
The resulting mixture was incubated 1 h at 22° C. to allow the formation of complex between the phosphorylated biotinylated peptide and the detection reagents. Subsequently the amount of phosphorylated substrate was evaluated by measurement of the resonance energy transfer from the Eu-chelate to the streptavidine-XL. Therefore, the fluorescence emissions at 620 nm and 665 nm after excitation at 350 nm was measured in a TR-FRET reader, e.g. a Rubystar (BMG Labtechnologies, Offenburg, Germany) or a Viewlux (Perkin-Elmer). The ratio of the emissions at 665 nm and at […] was taken as the measure for the amount of phosphorylated substrate. The data were normalised (enzyme reaction without inhibitor=0% inhibition, all other assay components but no enzyme=100% inhibition).

The subject of another assay is HeLa. The experiment in a line: Proliferation assay (crystal violet), HeLa. The assay is classed as cell-based. The settings on record: HeLa cells, 4 days incubation, crystal violet staining, read-out: IC50 inhibition of proliferation, HeLa. The method, boiled down: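 Tumor cells seeded at 1000–5000 cells/well in medium with 10% FCS; after 24 h, compounds added at 0.001–10 μM (0.5% DMSO) for 4 days. Cells fixed with glutaraldehyde, stained with crystal violet, dye dissolved in acetic acid and read at 595 nm. IC50 from 4-parameter fit, normalized to zero-point plate and untreated cells.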

Structures can show the parent of a compound that is named as a salt. Where two headings read alike, the source gives them in different places.

As to `Cc1nsc(Nc2cncc(C(F)(F)F)n2)c1C(=O)Nc1ccc(OCC2CCCN(C(=O)OC(C)(C)C)C2)nc1` (stereo not shown) [Example 166, tert-butyl 3-{[(5-{[(3-methyl-5-{[6-(trifluoromethyl)pyrazin-2-yl]amino}-1,2-thiazol-4-yl)carbonyl]amino}pyridin-2-yl)oxy]methyl}piperidine-1-carboxylate], the IC50 is > 20000 nM on CDK2/CycE and 830 nM in the assay on HeLa (Homo sapiens, HeLa, 96 h).

With `Cc1nsc(Nc2cc(C#N)ccn2)c1C(=O)Nc1ccc(Oc2cccnc2)nc1` [Example 119, 5-[(4-Cyanopyridin-2-yl)amino]-3-methyl-N-[6-(pyridin-3-yloxy)pyridin-3-yl]-1,2-thiazole-4-carboxamide], the IC50 is ≥ 20000 nM at CDK2/CycE and 5300 nM with HeLa (Homo sapiens, HeLa, 96 h). As to `Cc1nsc(Nc2cnc(C(F)(F)F)cn2)c1C(=O)Nc1ccc(OC[C@@H]2CCCN(CCC(F)(F)F)C2)nc1` [Example 422, 3-Methyl-5-{[5-(trifluoromethyl)pyrazin-2-yl]amino}-N-(6-{[(3R)-1-(3,3,3-trifluoropropyl)piperidin-3-yl]methoxy}pyridin-3-yl)-1,2-thiazole-4-carboxamide], the IC50 in the assay on HeLa was determined as 370 nM. Consider `Cc1nsc(Nc2cnc(C(F)(F)F)cn2)c1C(=O)Nc1ccc(OC2CCN(CCC(F)(F)F)CC2)nc1` [Example 10, 3-Methyl-5-{[5-(trifluoromethyl)pyrazin-2-yl]amino}-N-(6-{[1-(3,3,3-trifluoropropyl)-piperidin-4-yl]oxy}pyridin-3-yl)-1,2-thiazole-4-carboxamide], for which the IC50 at CDK2/CycE was ≥ 20000 nM; in the assay on HeLa (Homo sapiens, HeLa, 96 h), 330 nM. In the same order, the values of `Cc1nsc(Nc2cnc3cc(F)ccc3n2)c1C(=O)Nc1ccc(S(N)(=O)=O)cc1` [Example 149, 5-[(6-fluoroquinoxalin-2-yl)amino]-3-methyl-N-(4-sulfamoylphenyl)-1,2-thiazole-4-carboxamide] are > 20000 nM and > 10000 nM. In the case of `Cc1nsc(Nc2cnc(C(F)(F)F)cn2)c1C(=O)Nc1ccc(OC2CCN(CC(F)(F)F)CC2)nc1` [Example 9, -Methyl-N-(6-{[1-(2,2,2-trifluoroethyl)piperidin-4-yl]oxy}pyridin-3-yl)-5-{[5-(trifluoromethyl)pyrazin-2-yl]amino}-1,2-thiazole-4-carboxamide], the IC50 on CDK2/CycE was ≥ 20000 nM; with HeLa (Homo sapiens, HeLa, 96 h) it was 220 nM. The matching figures for `Cc1nsc(Nc2cnc3ccccc3n2)c1C(=O)Nc1ccc(Oc2cccc(C(F)(F)F)c2)nc1` [Example 117, 3-Methyl-5-(quinoxalin-2-ylamino)-N-{6-[3-(trifluoromethyl)phenoxy]pyridin-3-yl}-1,2-thiazole-4-carboxamide]: ≥ 20000 nM and 880 nM. With `CC(=O)N(C)CCOc1ccc(NC(=O)c2c(C)nsc2Nc2nc3c(C(F)(F)F)cccc3s2)cn1` [Example 112, N-(6-{2-[Acetyl(methyl)amino]-ethoxy}pyridin-3-yl)-3-methyl-5-{[4-(trifluoromethyl)-1,3-benzothiazol-2-yl]amino}-1,2-thiazole-4-carboxamide], the IC50 on CDK2/CycE was ≥ 20000 nM; in the assay with HeLa (Homo sapiens, HeLa, 96 h) it was 8800 nM. In the same order, the values of `CC(=O)N1CCC(Oc2ccc(NC(=O)c3c(C)nsc3Nc3cnc(C(F)(F)F)cn3)cn2)CC1` [Example 11, N-{6-[(1-Acetylpiperidin-4-yl)oxy]pyridin-3-yl}-3-methyl-5-{[5-(trifluoromethyl)-pyrazin-2-yl]amino}-1,2-thiazole-4-carboxamide] are ≥ 20000 nM and 1800 nM. Turning to `Cc1nsc(Nc2cnc(C(F)(F)F)cn2)c1C(=O)Nc1ccc(F)c(OCC2CCCN(CC(F)F)C2)c1` (stereo not shown) [Example 335, N-(3-{[1-(2,2-difluoroethyl)piperidin-3-yl]methoxy}-4-fluorophenyl)-3-methyl-5-{[5-(trifluoromethyl)pyrazin-2-yl]amino}-1,2-thiazole-4-carboxamide], the figures for the IC50 at CDK2/CycE and with HeLa were ≥ 20000 nM and 840 nM, respectively. As to `CCNS(=O)(=O)c1ccc(NC(=O)c2c(C)nsc2Nc2cnc3ccccc3n2)cc1` [Example 116, N-[4-(Ethylsulfamoyl)phenyl]-3-methyl-5-(quinoxalin-2-ylamino)-1,2-thiazole-4-carboxamide], the IC50 on CDK2/CycE is ≥ 20000 nM; in the assay on HeLa (Homo sapiens, HeLa, 96 h), 3000 nM. As to `Cc1nsc(Nc2cnc(C(F)(F)F)cn2)c1C(=O)Nc1ccc(OC2CCN(CCC(F)(F)F)CC2)nc1` [Example 426, 3-Methyl-5-{[5-(trifluoromethyl)pyrazin-2-yl]amino}-N-(6-{[1-(3,3,3-trifluoro-propyl)piperidin-4-yl]oxy}pyridin-3-yl)-1,2-thiazole-4-carboxamide, Salt with Hydrochloric Acid], the IC50 at CDK2/CycE is ≥ 20000 nM; in the assay with HeLa it was 420 nM. In the case of `CCCN1CC[C@H](Oc2ccc(NC(=O)c3c(C)nsc3Nc3cnc(C(F)(F)F)cn3)cn2)[C@H](F)C1` [Example 147, N-(6-{[(3R,4S)-3-fluoro-1-propylpiperidin-4-yl]oxy}pyridin-3-yl)-3-methyl-5-{[5-(trifluoromethyl)pyrazin-2-yl]amino}-1,2-thiazole-4-carboxamide], the IC50 on CDK2/CycE is > 20000 nM; in the assay with HeLa (Homo sapiens, HeLa, 96 h), 320 nM. The matching figures for `Cc1nsc(Nc2cnc(C(F)(F)F)cn2)c1C(=O)Nc1ccc(O[C@H]2CCN(CC(F)(F)F)C[C@H]2F)nc1` [Example 145, N-(6-{[(3R,4S)-3-fluoro-1-(2,2,2-trifluoroethyl)piperidin-4-yl]oxy}pyridin-3-yl)-3-methyl-5-{[5-(trifluoromethyl)pyrazin-2-yl]amino}-1,2-thiazole-4-carboxamide]: > 20000 nM and 160 nM.

For `Cc1nsc(Nc2cncc(C(F)(F)F)n2)c1C(=O)Nc1ccc(OC2CCN(C(=O)OC(C)(C)C)CC2)nc1` [Example 12, tert-Butyl 4-[(5-{[(3-methyl-5-{[6-(trifluoromethyl)pyrazin-2-yl]amino}-1,2-thiazol-4-yl)carbonyl]amino}pyridin-2-yl)oxy]piperidine-1-carboxylate], the IC50 was ≥ 20000 nM on CDK2/CycE and 910 nM with HeLa (Homo sapiens, HeLa, 96 h). With `Cc1nsc(Nc2cnc3ccccc3n2)c1C(=O)Nc1ccc(NC2CC2)nc1` [Example 172, N-[6-(cyclopropylamino)pyridin-3-yl]-3-methyl-5-(quinoxalin-2-ylamino)-1,2-thiazole-4-carboxamide], the IC50 at CDK2/CycE is > 20000 nM; in the assay on HeLa (Homo sapiens, HeLa, 96 h), > 10000 nM.

As for `Cc1nsc(Nc2cnc(C(F)(F)F)cn2)c1C(=O)Nc1ccc(OCC2CCN(CCF)C2)nc1` (stereo not shown) [Example 121, N-(6-{[1-(2-fluoroethyl)pyrrolidin-3-yl]methoxy}pyridin-3-yl)-3-methyl-5-{[5-(trifluoromethyl)pyrazin-2-yl]amino}-1,2-thiazole-4-carboxamide], the IC50 in the assay with HeLa (Homo sapiens, HeLa, 96 h) was 820 nM. Take `Cc1nsc(Nc2cnc(C(F)(F)F)cn2)c1C(=O)Nc1ccc(O[C@@H]2CCN(CCC(F)(F)F)C2)nc1` [Example 423, 3-Methyl-5-{[5-(trifluoromethyl)pyrazin-2-yl]amino}-N-(6-{[(3R)-1-(3,3,3-trifluoropropyl)pyrrolidin-3-yl]oxy}pyridin-3-yl)-1,2-thiazole-4-carboxamide]: the IC50 with HeLa was 410 nM.

Take `Cc1nsc(Nc2cnc(C(F)(F)F)cn2)c1C(=O)Nc1ccc(O[C@@H]2CCN(CC(F)(F)F)C2)nc1` [Example 421, 3-Methyl-N-(6-{[(3R)-1-(2,2,2-trifluoroethyl)pyrrolidin-3-yl]oxy}pyridin-3-yl)-5-{[5-(trifluoromethyl)pyrazin-2-yl]amino}-1,2-thiazole-4-carboxamide]: the IC50 in the assay with HeLa came out at 550 nM.
